According to ChEMBL document CHEMBL5046301, “pH-Responsive Antimicrobial Peptide with Selective Killing Activity for Bacterial Abscess Therapy” (J Med Chem, 2022):
Active and inactive are the calls of the source. The calls are words filed in the database; no cut-off is given here.

How the values were obtained:
[1] = test system: Staphylococcus aureus; assay: Antibacterial activity against methicillin-resistant Staphylococcus aureus ATCC 43300 assessed as inhibition of bacterial growth at pH 7.4 incubated for 24 hrs by NCCLS protocol based method; format: functional
[2] = test system: Salmonella typhimurium; assay: Antibacterial activity against Salmonella typhimurium ATCC 14028 assessed as inhibition of bacterial growth at pH 7.4 incubated for 24 hrs by NCCLS protocol based method; format: functional, Salmonella enterica subsp. enterica serovar Typhimurium; settings: Salmonella enterica
[3] = test system: Pseudomonas aeruginosa; assay: Antibacterial activity against Pseudomonas aeruginosa ATCC 27853 assessed as inhibition of bacterial growth at pH 7.4 incubated for 24 hrs by NCCLS protocol based method; format: functional
[4] = test system: Staphylococcus aureus; assay: Antibacterial activity against Staphylococcus aureus ATCC 29213 assessed as inhibition of bacterial growth at pH 7.4 incubated for 24 hrs by NCCLS protocol based method; format: functional
[5] = test system: Salmonella typhimurium; assay: Antibacterial activity against Salmonella enterica subsp. enterica serovar Typhimurium C77-31 assessed as inhibition of bacterial growth at pH 6.5 incubated for 24 hrs by NCCLS protocol based method; format: functional
[6] = test system: Salmonella typhimurium; assay: Antibacterial activity against Salmonella typhimurium ATCC 14028 assessed as inhibition of bacterial growth at pH 6.5 incubated for 24 hrs by NCCLS protocol based method; format: functional, Salmonella enterica subsp. enterica serovar Typhimurium; settings: Salmonella enterica
[7] = test system: Escherichia coli; assay: Antibacterial activity against Escherichia coli ATCC 25922 assessed as inhibition of bacterial growth at pH 6.5 incubated for 24 hrs by NCCLS protocol based method; format: functional
[8] = test system: Pseudomonas aeruginosa; assay: Antibacterial activity against Pseudomonas aeruginosa ATCC 27853 assessed as inhibition of bacterial growth at pH 6.5 incubated for 24 hrs by NCCLS protocol based method; format: functional
[9] = test system: Staphylococcus aureus; assay: Antibacterial activity against Staphylococcus aureus ATCC 29213 assessed as inhibition of bacterial growth at pH 6.5 incubated for 24 hrs by NCCLS protocol based method; format: functional
[10] = Hemolytic activity in human RBC assessed as hemoglobin release at pH 7.4 incubated for 1 hr; format: toxicity, cell-based; settings: erythrocyte, pH 7.4, 1 h
[11] = Hemolytic activity against human RBC assessed as hemoglobin release at pH 6.5 incubated for 1 hrs; format: toxicity, cell-based; settings: erythrocyte, pH 6.5, 1 h
[12] = Cytotoxicity against mouse RAW264.7 cells assessed as inhibition of cell growth at pH 7.4 measured after 24 hrs by MTT assay; format: toxicity, cell-based
[13] = test system: Pseudomonas aeruginosa; assay: Antimicrobial activity against Pseudomonas aeruginosa ATCC 27853 assessed as reduction in bacterial growth at pH 6.5 in presence of NaCl; format: functional
[14] = test system: Pseudomonas aeruginosa; assay: Antimicrobial activity against Pseudomonas aeruginosa ATCC 27853 assessed as reduction in bacterial growth at pH 6.5 in presence of MgCl2; format: functional
[15] = test system: Pseudomonas aeruginosa; assay: Antimicrobial activity against Pseudomonas aeruginosa ATCC 27853 assessed as reduction in bacterial growth at pH 6.5 in presence of KCl; format: functional, organism-based
[16] = test system: Pseudomonas aeruginosa; assay: Antimicrobial activity against Pseudomonas aeruginosa ATCC 27853 assessed as reduction in bacterial growth at pH 6.5 in presence of NH4Cl; format: functional, organism-based
[17] = test system: Pseudomonas aeruginosa; assay: Antimicrobial activity against Pseudomonas aeruginosa ATCC 27853 assessed as reduction in bacterial growth at pH 6.5 in presence of CaCl2; format: functional, organism-based
[18] = test system: Pseudomonas aeruginosa; assay: Antimicrobial activity against Pseudomonas aeruginosa ATCC 27853 assessed as reduction in bacterial growth at pH 6.5 in presence of FeCl3; format: functional, organism-based
[19] = test system: Lipopolysaccharide (LPS); assay: Displacement of BODIPY-TR-cadaverin from Pseudomonas aeruginosa ATCC 27316 Lipopolysaccharide at 1 to 64 uM at pH 6.5 incubated for 1 hr by fluorescence based analysis relative to control; settings: dose 1-64 µM
[20] = test system: Cell membrane; assay: Induction of outer membrane permeabilization in Pseudomonas aeruginosa ATCC 27853 assessed as pH responsive ability by measuring fold increase in NPN uptake at 64 uM by NPN-dye based fluorescence analysis relative to control; format: subcellular
[21] = test system: Cell membrane; assay: Induction of cytoplasmic membrane depolarization in Pseudomonas aeruginosa ATCC 27853 assessed as increase in fluorescence intensity at acidic and alkaline pH by DiSC3-5 dye based fluorescence assay; format: subcellular; settings: TDE = time-dependent effect
[22] = test system: Pseudomonas aeruginosa; assay: Induction of morphological changes in Pseudomonas aeruginosa ATCC 27853 assessed as disruption in cell membrane at 2 uM at pH 6.5 incubated for 1 hr by SEM analysis; format: functional, organism-based
[23] = test system: Pseudomonas aeruginosa; assay: Induction of morphological changes in Pseudomonas aeruginosa ATCC 27853 assessed as plasma membrane collapse at 2 uM at pH 7.4 incubated for 1 hr by TEM analysis; format: functional, organism-based
[24] = test system: Pseudomonas aeruginosa; assay: Antimicrobial activity against Pseudomonas aeruginosa ATCC 27853 infected in ICR cutaneous abscess mouse model assessed as reduction in colony forming units at 5 mg/kg,ip administered twice a day measured after 72 hrs (reference value: 5.08 +/ 1.84 10^10 CFU/mL ); format: functional
[25] = test system: Pseudomonas aeruginosa; assay: Antipseudomonal activity against Pseudomonas aeruginosa ATCC 27853 infected in ICR cutaneous abscess mouse model assessed as reduction in lesion area at 5 mg/kg,ip administered twice a day measured after 72 hrs (reference value: […]); format: functional
[26] = test system: Pseudomonas aeruginosa; assay: Antipseudomonal activity against Pseudomonas aeruginosa ATCC 27853 infected in ICR cutaneous abscess mouse model assessed as fold reduction in lesion area at 5 mg/kg,ip administered twice a day measured after 72 hrs relative to control; format: functional
[27] = test system: Mus musculus; assay: Antiinflammatory activity in ICR cutaneous abscess mouse model assessed as reduction in TNF-alpha expression in serum at 5 mg/kg,ip administered twice a day measured after 72 hrs by ELISA (reference value: 1.01 +/ 0.46 10^3 pg/ml); format: functional
[28] = test system: Mus musculus; assay: Antiinflammatory activity in ICR cutaneous abscess mouse model assessed as reduction in IL-1beta expression in serum at 5 mg/kg,ip administered twice a day measured after 72 hrs by ELISA (reference value: 9.9 +/ 0.47 10^1pg/ml); format: functional
[29] = test system: Mus musculus; assay: Antiinflammatory activity in ICR cutaneous abscess mouse model assessed as reduction in IL-2 expression in serum at 5 mg/kg,ip administered twice a day measured after 72 hrs by ELISA (reference value: 1.53 +/ 0.06 10^3pg/ml); format: functional
[30] = test system: Pseudomonas aeruginosa; assay: Antimicrobial activity against Pseudomonas aeruginosa ATCC 27853 infected in ICR cutaneous abscess mouse model assessed as complete epidermis structure at 5 mg/kg,ip administered twice a day measured after 3 days by hematoxylin and eosin staining based analysis; format: functional, organism-based; settings: time 3.0 day
[31] = Toxicity in ICR cutaneous abscess mouse model assessed as reduction in epidermal cell apoptosis at 10 mg/kg,sc measured after 24 hrs by TUNEL assay; format: organism-based; settings: in vivo
[32] = test system: Cell membrane; assay: Induction of outer membrane permeabilization in Pseudomonas aeruginosa ATCC 27853 assessed as increase in NPN uptake by NPN-dye based fluorescence analysis; format: subcellular; settings: dose 1-64 µM
[33] = test system: Pseudomonas aeruginosa; assay: Induction of morphological changes in Pseudomonas aeruginosa ATCC 27853 assessed as change in intracellular contents at 2 uM at pH 7.4 incubated for 1 hr by TEM analysis; format: functional, organism-based
[34] = test system: Pseudomonas aeruginosa; assay: Induction of morphological changes in Pseudomonas aeruginosa ATCC 27853 assessed as change in intracellular contents at 2 uM at pH 6.5 incubated for 1 hr by TEM analysis; format: functional, organism-based

## H-FLEHLIPHVIHGLVHAIHH-NH2
[1]
  MIC: > 64 µM
[2]
  MIC: > 64 µM
[3]
  MIC: > 64 µM
[4]
  MIC: > 64 µM
[5]
  MIC: 8 µM
[6]
  MIC: 16 µM
[7]
  MIC: 2 µM
[8]
  MIC: 2 µM
[9]
  MIC: > 64 µM
[10]
  MHC10: > 128 µM
[11]
  MHC10: > 128 µM
[12]
  IC50 at 24 h: > 128 µM
[13]
  MIC: 2 µM
[14]
  MIC: 2 µM
[15]
  Activity: inactive
[16]
  Activity: Active
[17]
  Activity: Active
[18]
  Activity: Active
[19]
  Activity: 100%
[20]
  Activity: 65.9%
[21]
  Activity: Tde
[22]
  Activity: Active
[23]
  Activity: inactive
[24]
  Activity: 2.16 10^9CFU/ml
[25]
  Activity: 2.97 10^1/mm2
[26]
  fold change (FC): 10
[27]
  Activity: 8.14 10^2pg/ml
[28]
  Activity: 6.93 10^1pg/ml
[29]
  Activity: 1.15 10^3pg/ml
[30]
  Activity: Active
[31]
  Activity: Non-Toxic
[32]
  Activity: Dose-Dependent Effect
[33]
  Activity: inactive
[34]
  Activity: Active
